≈ marks a conversion by molar mass, not a printed value. Each block holds one compound with its values, some of them ahead of it.
How the values were obtained:
[1] = biological target: Ba/F3-FL-EGFR-A763-Y764 ins FQEA (Homo sapiens, UniProt P00533, INS763FQEA, cells depend on it); assay: Cell proliferation inhibition (CellTiter-Glo), EGFR exon 20 insertion engineered cells; type: cell-based; details: 72 h, read-out: IC50, Ba/F3-FL-EGFR A763-Y764ins FQEA
Method: (§1) The selected engineering cells Ba/F3-FL-EGFR-V769-D770 ins ASV, Ba/F3-FL-EGFR-D770-N771 ins SVD, Ba/F3-FL-EGFR-H773-V774 ins NPH, Ba/F3-FL-EGFR-A763-Y764 ins FQEA, Ba/F3-HER2-A775-G776 ins YVMA were provided by Hefei PreceDo Biomedical Technology Co., LTD and were validated prior to use in this study.
(§2) A 20× stock of the compound to be tested was prepared for use, with 9 concentrations in 3-fold gradient dilution, diluted from 1 μM.
(§3) The logarithmic growth phase cell suspension was inoculated into 96-well white cell culture plates with 95 μL volume per well (2000 cells/well). 5 μL of 20× Compound to be tested was added to the plate containing 95 μL of cell suspension according to the plate spreading diagram, and then mixed well. The plate was incubated in a 5% CO2 incubator at 37° C. for 72 h. The proliferation inhibition activity of the compounds was determined by the CellTiter-Glo method, and the fluorescence value per well, RLU, was obtained from the SpectraMax Paradigm reading. Inhibition Rate data were processed using the following formula: Inhibition Rate (Inh %)=100−(RLU compound−RLU blank)/(RLU control−RLU blank)*100%. The cell viability corresponding to different concentrations of compounds was calculated in EXCEL, and then GraphPad Prism software was used to plot the cell viability curve and calculate the IC50 value.

[2] = biological target: Ba/F3-FL-EGFR-D770-N771 ins SVD (Homo sapiens, UniProt P00533, DUP768-770, cells depend on it); assay: as above; type: cell-based; details: 72 h, read-out: IC50, Ba/F3-FL-EGFR D770-N771ins SVD
Method: as §1, §2, §3

[3] = biological target: Ba/F3-FL-EGFR-H773-V774 ins NPH (Homo sapiens, UniProt P00533, DUP771-773, cells depend on it); assay: as above; type: cell-based; details: 72 h, read-out: IC50, Ba/F3-FL-EGFR H773-V774ins NPH
Method: as §1, §2, §3

[4] = biological target: Ba/F3-FL-EGFR-V769-D770 ins ASV (Homo sapiens, UniProt P00533, DUP767-769, cells depend on it); assay: as above; type: cell-based; details: 72 h, read-out: IC50, Ba/F3-FL-EGFR V769-D770ins ASV
Method: as §1, §2, §3

[5] = tested on: Ba/F3 EGFR D770_N771 ins SVD; assay: In vivo pharmacodynamic study, Ba/F3-EGFR-D770_N771 ins SVD subcutaneous xenograft model; design: species or system nude mice; details: 30 mg/kg, P.O, QD * 14 days
Method: The experimental design and results were shown in Table 9, wherein P.O referred to administered orally; QD: once a day; TGI (Tumor volume inhibition rate)=(1-Tumor weight of the treatment group/Tumor weight of the control group)*100%. The cell line Ba/F3 EGFR D770_N771 ins SVD was cultured in 37° C., 5% CO2 with RPMI1640+10% fetal bovine serum+1% double antibody, and passaged 2-3 times a week. When the cell saturation was 80-90% and the number of cells met the requirement, the cells were collected. 0.2 mL (1*10^6) cells were subcutaneously inoculated into the right back of 6-8 weeks old female nude mice weighing 18-22 g. When the average tumor volume reached approximately 150-200 mm^3, grouping and drug administration started. Before the start of drug administration, all animals were weighed and the tumor volume was measured with vernier calipers. Mice were randomly grouped according to tumor volume to ensure that tumor volumes were similar between groups. Three mice in each group were administered orally once daily, and the inoculation site was observed after administration. Tumor volume and mouse body weight were measured twice a week.

PC9 = assay: Cell proliferation inhibition (CellTiter-Glo) on cell line PC9; type: cell-based; details: Homo sapiens, PC-9
Method: (§4) The cell lines NCI-H1975 and PC9 selected for the experiments were provided by Sino-American Guanke Biotechnology (Beijing) Co. and were validated prior to use in this study.
(§5) A 10× stock of the compound to be tested was prepared for use, with 9 concentrations in 4-fold gradient dilution, diluted from 10 μM.
(§6) The logarithmic growth phase cell suspension was inoculated into a 96-well culture plate with 90 μL volume per well (2000 cells/well). 10 μL of 10× Compound to be tested was added to the plate according to the plate spreading diagram, and then mixed well. The plate was incubated in a 5% CO2 incubator at 37° C. The proliferation inhibitory activity of the compound was determined by the CellTiter-Glo method. Cell proliferation inhibition rate (Inhibition Rate) data were plotted using GraphPad Prism 8.0 software for cell viability curves and IC50 values were calculated.

[6] = biological target: Ba/F3-HER2-A775-G776 ins YVMA (Homo sapiens, UniProt P04626, DUP772-775, cells depend on it); assay: Cell proliferation inhibition (CellTiter-Glo), HER2 exon 20 insertion engineered cells; type: cell-based; details: for GI50: 72 h, CellTiter-Glo, read-out: IC50, Ba/F3-HER2-A775-G776ins YVMA
Method: as §1, §2, §3

[7] = tested on: Lung cancer LU0387PDX model; assay: Pharmacodynamic study on lung cancer LU0387PDX model; type: in vivo, mice; details: LU0387 model; for TGI (%): P.O, QD * 13 days
Source text: Lung cancer LU0387PDX model is a commonly used xenograft tumor model from Crown Bioscience, the experimental situation of this model is described as follows: after euthanasia of tumor-bearing mice, the tumor blocks were dissected out in aseptic condition, the blocks were cleaned to remove blood stains and connective tissues and necrotic parts, and the tumors were cut into small pieces of 2*2*2 mm^3, and inoculated with an adapter needle in sterilized experimental mice subcutaneously on the right dorsal side. Tumor growth was regularly observed, and when the tumors grew to an average volume of 100~200 mm^3, mice were randomly grouped according to tumor size and body weight for drug administration. Before the start of drug administration, all animals were weighed and the tumor volume was measured with vernier calipers. Mice were randomly grouped according to tumor volume to ensure that tumor volumes were similar between groups. Three mice in each group were administered orally once daily, and the inoculation site was observed after administration. Tumor volume and mouse body weight were measured twice a week. The experimental design and results were shown in Table 9, wherein P.O referred to administered orally; QD: once a day; TGI (Tumor volume inhibition rate)=(1-Tumor weight of the treatment group/Tumor weight of the control group)*100%.

NCI-H1975 = assay: Cell proliferation inhibition (CellTiter-Glo) on cell line NCI-H1975; type: cell-based; details: Homo sapiens
Method: as §4, §5, §6

[8] = Competitive pulping of anhydrous crystalline forms I and V; type: physicochemical; details: saturated acetone and acetonitrile solutions, 25° C. or 50° C.
Grinding experiment = type: physicochemical
[9] = Stability experiment (left open, XRPD and liquid chromatography); type: physicochemical; details: left open at 80° C. 3 days, 60° C. 7 days, 25° C./60% RH 7 days, 40° C./75% RH 7 days, 25° C./90±5% RH 7 days
Method: In the stability experiment, when the free base crystalline form I was left open at 80° C. for 3 days, 60° C. for 7 days, 25° C./60% RH for 7 days, 40° C./75% RH for 7 days, and 25° C./90±5% RH for 7 days, the samples were taken for XRPD detection, respectively.

[10] = Tablet pressing experiment; type: physicochemical; details: pressure 30 MPa
[11] = Dynamic water vapor adsorption (DVS) test; type: physicochemical
[12] = Solubility test by visual inspection in 18 solvents; type: physicochemical; details: room temperature
Source text: The solubility of the free base crystalline form I of the compound of Example 1 was crudely determined by visual inspection in 18 solvents at room temperature. The free base crystalline form I was only highly soluble in dichloroethane and dichloromethane and poorly soluble in most of the solvents tested.

Ba/F3-FL-EGFR-D770-N771 ins SVD, sequence (P00533 with tags, fused parts or gaps DUP768-770): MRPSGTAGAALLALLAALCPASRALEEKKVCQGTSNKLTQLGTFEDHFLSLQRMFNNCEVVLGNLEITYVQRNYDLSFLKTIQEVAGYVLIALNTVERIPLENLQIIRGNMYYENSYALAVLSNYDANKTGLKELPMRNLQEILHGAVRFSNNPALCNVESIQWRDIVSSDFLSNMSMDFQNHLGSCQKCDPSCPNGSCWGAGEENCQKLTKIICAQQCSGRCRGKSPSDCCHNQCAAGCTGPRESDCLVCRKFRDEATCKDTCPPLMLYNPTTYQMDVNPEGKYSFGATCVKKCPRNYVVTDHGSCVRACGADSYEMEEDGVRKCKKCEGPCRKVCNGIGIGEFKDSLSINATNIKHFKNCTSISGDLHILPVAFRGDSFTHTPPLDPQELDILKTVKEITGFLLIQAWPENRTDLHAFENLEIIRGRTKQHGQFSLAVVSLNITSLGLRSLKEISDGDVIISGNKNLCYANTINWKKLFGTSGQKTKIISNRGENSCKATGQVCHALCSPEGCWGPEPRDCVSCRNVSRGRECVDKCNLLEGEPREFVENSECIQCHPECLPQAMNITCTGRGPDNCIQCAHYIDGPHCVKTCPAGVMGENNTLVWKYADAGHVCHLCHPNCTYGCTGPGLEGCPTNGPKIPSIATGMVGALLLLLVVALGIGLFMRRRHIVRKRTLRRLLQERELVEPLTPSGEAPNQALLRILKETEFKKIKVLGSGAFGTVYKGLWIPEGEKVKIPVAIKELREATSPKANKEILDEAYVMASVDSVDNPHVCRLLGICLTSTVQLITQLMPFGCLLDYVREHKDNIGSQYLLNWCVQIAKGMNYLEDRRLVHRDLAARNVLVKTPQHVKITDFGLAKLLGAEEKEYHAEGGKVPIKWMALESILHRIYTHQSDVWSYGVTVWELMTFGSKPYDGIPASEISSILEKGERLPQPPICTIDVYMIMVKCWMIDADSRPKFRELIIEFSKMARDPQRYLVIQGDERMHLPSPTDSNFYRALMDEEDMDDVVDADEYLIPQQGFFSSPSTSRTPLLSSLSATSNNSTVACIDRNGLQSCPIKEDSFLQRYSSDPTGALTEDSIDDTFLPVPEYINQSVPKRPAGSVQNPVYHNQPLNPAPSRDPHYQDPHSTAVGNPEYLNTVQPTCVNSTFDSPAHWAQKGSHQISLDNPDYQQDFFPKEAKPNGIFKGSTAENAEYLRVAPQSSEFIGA
Ba/F3-HER2-A775-G776 ins YVMA, sequence (P04626 with tags, fused parts or gaps DUP772-775): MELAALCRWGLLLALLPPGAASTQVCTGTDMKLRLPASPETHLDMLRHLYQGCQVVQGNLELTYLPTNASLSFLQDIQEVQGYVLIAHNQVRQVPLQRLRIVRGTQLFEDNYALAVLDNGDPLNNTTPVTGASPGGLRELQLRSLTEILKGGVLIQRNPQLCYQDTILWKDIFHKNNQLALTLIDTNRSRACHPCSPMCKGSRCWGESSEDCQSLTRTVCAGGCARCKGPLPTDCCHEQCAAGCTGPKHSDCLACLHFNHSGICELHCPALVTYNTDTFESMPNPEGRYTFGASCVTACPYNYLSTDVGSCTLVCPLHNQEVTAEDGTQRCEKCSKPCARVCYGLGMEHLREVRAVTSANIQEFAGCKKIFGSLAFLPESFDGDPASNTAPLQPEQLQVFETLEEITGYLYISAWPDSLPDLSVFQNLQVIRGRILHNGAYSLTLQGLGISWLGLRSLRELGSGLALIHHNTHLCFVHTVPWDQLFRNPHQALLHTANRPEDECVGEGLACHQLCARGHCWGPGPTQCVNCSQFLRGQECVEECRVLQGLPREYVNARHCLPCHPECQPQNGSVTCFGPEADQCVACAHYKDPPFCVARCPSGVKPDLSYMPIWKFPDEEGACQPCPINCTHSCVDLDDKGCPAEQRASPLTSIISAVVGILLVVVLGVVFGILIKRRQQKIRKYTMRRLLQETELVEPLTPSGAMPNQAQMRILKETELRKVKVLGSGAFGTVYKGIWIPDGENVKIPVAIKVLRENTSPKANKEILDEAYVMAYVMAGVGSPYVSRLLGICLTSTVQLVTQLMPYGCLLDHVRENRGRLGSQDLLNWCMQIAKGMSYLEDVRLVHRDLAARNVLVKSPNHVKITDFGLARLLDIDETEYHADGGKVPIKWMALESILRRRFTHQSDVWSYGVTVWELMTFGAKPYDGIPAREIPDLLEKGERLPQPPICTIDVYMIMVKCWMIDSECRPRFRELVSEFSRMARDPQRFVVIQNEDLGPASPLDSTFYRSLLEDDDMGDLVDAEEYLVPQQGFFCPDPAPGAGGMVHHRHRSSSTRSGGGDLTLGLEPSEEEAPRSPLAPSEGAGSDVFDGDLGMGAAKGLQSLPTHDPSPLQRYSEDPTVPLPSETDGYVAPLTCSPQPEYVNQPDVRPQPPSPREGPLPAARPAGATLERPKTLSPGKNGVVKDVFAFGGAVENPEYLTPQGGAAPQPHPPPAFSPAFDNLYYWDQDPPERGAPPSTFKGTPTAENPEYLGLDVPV
Ba/F3-FL-EGFR-H773-V774 ins NPH, sequence (P00533 with tags, fused parts or gaps DUP771-773): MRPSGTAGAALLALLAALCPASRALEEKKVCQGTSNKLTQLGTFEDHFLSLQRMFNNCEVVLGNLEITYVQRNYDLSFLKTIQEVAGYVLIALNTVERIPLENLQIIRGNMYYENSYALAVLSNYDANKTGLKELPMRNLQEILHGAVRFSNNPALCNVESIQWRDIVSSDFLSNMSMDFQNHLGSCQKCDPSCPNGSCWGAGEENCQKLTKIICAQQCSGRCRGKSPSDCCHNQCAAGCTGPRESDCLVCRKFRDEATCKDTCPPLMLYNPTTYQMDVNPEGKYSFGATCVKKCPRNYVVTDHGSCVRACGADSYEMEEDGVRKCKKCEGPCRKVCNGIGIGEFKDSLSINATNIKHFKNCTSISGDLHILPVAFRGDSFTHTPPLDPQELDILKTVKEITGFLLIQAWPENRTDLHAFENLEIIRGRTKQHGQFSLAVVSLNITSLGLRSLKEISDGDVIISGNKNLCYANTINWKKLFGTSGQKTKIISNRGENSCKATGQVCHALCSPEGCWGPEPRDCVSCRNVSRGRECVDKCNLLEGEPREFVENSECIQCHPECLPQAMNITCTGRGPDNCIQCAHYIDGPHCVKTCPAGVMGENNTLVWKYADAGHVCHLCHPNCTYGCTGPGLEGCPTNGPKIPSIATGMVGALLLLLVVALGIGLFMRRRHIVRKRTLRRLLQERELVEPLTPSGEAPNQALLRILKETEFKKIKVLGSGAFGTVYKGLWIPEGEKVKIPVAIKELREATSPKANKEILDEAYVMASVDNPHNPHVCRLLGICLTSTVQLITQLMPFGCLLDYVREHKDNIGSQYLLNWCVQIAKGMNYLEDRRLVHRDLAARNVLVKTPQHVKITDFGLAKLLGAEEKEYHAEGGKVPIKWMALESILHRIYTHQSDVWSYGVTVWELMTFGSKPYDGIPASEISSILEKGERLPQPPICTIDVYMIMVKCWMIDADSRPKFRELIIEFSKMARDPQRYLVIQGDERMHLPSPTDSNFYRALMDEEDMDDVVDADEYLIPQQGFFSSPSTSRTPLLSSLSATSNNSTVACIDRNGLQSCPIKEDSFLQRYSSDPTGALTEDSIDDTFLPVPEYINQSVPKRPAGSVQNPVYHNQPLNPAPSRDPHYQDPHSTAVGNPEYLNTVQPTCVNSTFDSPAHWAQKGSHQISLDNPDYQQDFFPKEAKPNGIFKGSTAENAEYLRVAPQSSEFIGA
Ba/F3-FL-EGFR-A763-Y764 ins FQEA, sequence (P00533 with tags, fused parts or gaps INS763FQEA): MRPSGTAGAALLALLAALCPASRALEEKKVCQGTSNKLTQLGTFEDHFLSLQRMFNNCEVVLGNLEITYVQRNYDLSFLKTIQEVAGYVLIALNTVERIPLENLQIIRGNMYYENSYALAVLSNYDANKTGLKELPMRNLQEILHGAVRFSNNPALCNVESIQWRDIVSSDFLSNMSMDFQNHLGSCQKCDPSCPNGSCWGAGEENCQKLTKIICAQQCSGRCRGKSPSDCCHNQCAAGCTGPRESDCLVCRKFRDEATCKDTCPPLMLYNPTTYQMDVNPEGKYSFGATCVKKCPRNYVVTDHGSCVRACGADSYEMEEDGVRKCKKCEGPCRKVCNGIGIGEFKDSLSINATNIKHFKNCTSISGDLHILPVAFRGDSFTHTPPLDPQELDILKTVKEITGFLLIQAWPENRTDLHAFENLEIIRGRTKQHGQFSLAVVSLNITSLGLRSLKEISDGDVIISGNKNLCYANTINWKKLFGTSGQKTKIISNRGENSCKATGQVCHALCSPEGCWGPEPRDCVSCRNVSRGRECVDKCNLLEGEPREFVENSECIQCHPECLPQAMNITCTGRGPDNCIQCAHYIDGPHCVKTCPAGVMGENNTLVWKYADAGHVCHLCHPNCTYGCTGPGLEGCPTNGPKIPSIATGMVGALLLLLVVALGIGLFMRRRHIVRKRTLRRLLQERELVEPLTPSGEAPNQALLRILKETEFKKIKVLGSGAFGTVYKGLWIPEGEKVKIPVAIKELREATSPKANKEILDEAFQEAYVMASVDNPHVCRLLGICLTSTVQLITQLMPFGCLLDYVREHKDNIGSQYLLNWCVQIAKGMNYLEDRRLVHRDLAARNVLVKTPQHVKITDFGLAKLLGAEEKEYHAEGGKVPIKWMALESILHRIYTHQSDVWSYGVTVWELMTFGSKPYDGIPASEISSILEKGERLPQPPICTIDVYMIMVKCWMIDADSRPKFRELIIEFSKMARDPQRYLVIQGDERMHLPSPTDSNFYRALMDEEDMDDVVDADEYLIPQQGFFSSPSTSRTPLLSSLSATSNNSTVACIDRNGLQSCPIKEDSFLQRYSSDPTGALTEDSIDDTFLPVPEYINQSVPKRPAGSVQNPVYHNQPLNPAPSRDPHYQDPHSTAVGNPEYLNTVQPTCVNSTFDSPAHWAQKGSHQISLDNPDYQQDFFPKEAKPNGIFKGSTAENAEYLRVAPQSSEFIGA

Compound: [2H]C([2H])([2H])N(c1cc(OC)c(Nc2ncc(C(=O)OC(C)C)c(-c3cn(C)c4ccccc34)n2)cc1NC(=O)C=C)[C@@H]1[C@@H]2CN(C)C[C@@H]21 [Example 3]
- GI50 [1]: ≤ 30 nM
- GI50 [2]: ≤ 30 nM
- GI50 [3]: ≤ 30 nM
- GI50 [4]: ≤ 30 nM

Compound: C=CC(=O)Nc1cc(Nc2ncc(-c3nnc(C)o3)c(-c3cn(C)c4ccccc34)n2)c(OC)cc1N(C)[C@H]1[C@@H]2CN(C)C[C@@H]21 [Example 18, reference compound]
- TGI (%) [5]: 32.22%

Compound: C=CC(=O)Nc1cc(Nc2ncc(-c3nnc(C)o3)c(-c3cn(C)c4ccccc34)n2)c(OC)cc1N(C)[C@@H]1[C@@H]2CN(C)C[C@@H]21 [Example 5]
- TGI (%) [5]: 59.51%
- IC50 (PC9): ≤ 30 nM
- GI50 [6]: ≤ 30 nM
- cellular activity against HER2 exon 20 insertion mutations compared with controls ([6]; Table 7): comparable to that of TAK-788 and superior to that of DZD9008
- GI50 [1]: ≤ 30 nM
- GI50 [2]: ≤ 30 nM
- GI50 [3]: ≤ 30 nM
- GI50 [4]: ≤ 30 nM
- TGI (%) ([7]; 30 mg/kg): 66.90%
- IC50 (NCI-H1975): ≤ 30 nM

Compound: C=CC(=O)Nc1cc(Nc2ncc(C(=O)OC(C)C)c(-c3cn(C)c4ccccc34)n2)c(OC)cc1N(C)[C@@H]1[C@@H]2CN(C)C[C@@H]21 [Example 1]
- TGI (%) [5]: 61.08%
- IC50 (PC9): ≤ 30 nM
- GI50 [6]: ≤ 30 nM
- GI50 [1]: ≤ 30 nM
- GI50 [2]: ≤ 30 nM
- GI50 [3]: ≤ 30 nM
- GI50 [4]: ≤ 30 nM
- TGI (%) ([7]; 30 mg/kg): 79.01%
- TGI (%) ([7]; 50 mg/kg): 97.44%
- efficacy compared with controls (FIG. 1, tumor volume) ([7]; same dose): superior to that of TAK-788 and DZD9008
- IC50 (NCI-H1975): ≤ 30 nM

Compound: [2H]C([2H])([2H])n1cc(-c2nc(Nc3cc(NC(=O)C=C)c(N(C)[C@@H]4[C@@H]5CN(C)C[C@@H]54)cc3OC)ncc2C(=O)OC(C)C)c2ccccc21 [Example 2]
- GI50 [1]: ≤ 30 nM
- GI50 [2]: ≤ 30 nM
- GI50 [3]: ≤ 30 nM
- GI50 [4]: ≤ 30 nM

Compound: C=CC(=O)Nc1cc(Nc2ncc(C(=O)OC(C)C)c(-c3cn(C)c4ccccc34)n2)c(OC)cc1N(C)[C@H]1[C@@H]2CN(C)C[C@@H]21 [Example 40, reference compound]
- TGI (%) [5]: 37.84%

Further lines, with some results ahead:

- GI50 [1]: ≤ 30 nM
- GI50 [2]: ≤ 30 nM
- GI50 [3]: ≤ 30 nM
- GI50 [4]: ≤ 30 nM
Compound: [2H]C([2H])([2H])N1C[C@@H]2[C@H](C1)[C@@H]2N(C)c1cc(OC)c(Nc2ncc(-c3nnc(C)o3)c(-c3cn(C)c4ccccc34)n2)cc1NC(=O)C=C [Example 8]

- solid form after dry grinding (Grinding experiment; 5 min of dry grinding): transformed into amorphous state
- crystallinity after wet grinding with ethanol (Grinding experiment; 5 min of wet grinding with ethanol): slight decrease in crystallinity
- crystallinity after wet grinding with water (Grinding experiment; 5 min of wet grinding with water): no significant change in crystallinity
- stability, change in liquid chromatography results [9]: no change
- stability, change of crystalline form by XRPD [9]: no significant change
- crystallinity after tablet pressing [10]: crystallinity slightly decreased
- hygroscopicity [11]: slightly hygroscopic
- weight gain by water absorption ([11]; at 80% RH): 0.66%
- solubility ([12]; organic solvent or mixture, thermodynamic from solid, 1,4-dioxane): < 270 µg/mL
- solubility ([12]; organic solvent or mixture, thermodynamic from solid, Acetone): 2220 to 4440 µg/mL (≈ 3.64 to 7.28 mM)
- solubility ([12]; organic solvent or mixture, thermodynamic from solid, Acetonitrile): 930 to 1010 µg/mL (≈ 1.53 to 1.66 mM)
- solubility ([12]; organic solvent or mixture, thermodynamic from solid, Butanone): 2780 to 4440 µg/mL (≈ 4.56 to 7.28 mM)
- solubility ([12]; organic solvent or mixture, thermodynamic from solid, Cyclohexane): < 330 µg/mL
- solubility ([12]; organic solvent or mixture, thermodynamic from solid, Dichloroethane): 61800 to 124000 µg/mL (≈ 101 to 203 mM)
- solubility ([12]; organic solvent or mixture, thermodynamic from solid, Dichloromethane): > 107000 µg/mL
- solubility ([12]; organic solvent or mixture, thermodynamic from solid, Dimethylsulfoxide): 2600 to 2930 µg/mL (≈ 4.26 to 4.81 mM)
- solubility ([12]; organic solvent or mixture, thermodynamic from solid, Ethanol): < 300 µg/mL
- solubility ([12]; organic solvent or mixture, thermodynamic from solid, Ethyl acetate): < 290 µg/mL
- solubility ([12]; organic solvent or mixture, thermodynamic from solid, Isopropanol): < 350 µg/mL
- solubility ([12]; organic solvent or mixture, thermodynamic from solid, Isopropyl acetate): < 300 µg/mL
- solubility ([12]; organic solvent or mixture, thermodynamic from solid, Methanol): < 400 µg/mL
- solubility ([12]; organic solvent or mixture, thermodynamic from solid, N-Methyl pyrrolidone): 18200 to 27400 µg/mL (≈ 29.9 to 44.9 mM)
- solubility ([12]; organic solvent or mixture, thermodynamic from solid, Tert-butyl methyl ether): < 330 µg/mL
- solubility ([12]; organic solvent or mixture, thermodynamic from solid, Tetrahydrofuran): 2550 to 3190 µg/mL (≈ 4.18 to 5.23 mM)
- solubility ([12]; organic solvent or mixture, thermodynamic from solid, n-Heptane): < 300 µg/mL
- solubility ([12]; thermodynamic from solid, Water): < 270 µg/mL
Compound: C=CC(=O)Nc1cc(Nc2ncc(C(=O)OC(C)C)c(-c3cn(C)c4ccccc34)n2)c(OC)cc1N(C)[C@@H]1[C@@H]2CN(C)C[C@@H]21 [free base crystalline form I]
- thermodynamic stability versus free base crystalline form V [8]: thermodynamically stable crystalline form

- GI50 [1]: ≤ 30 nM
- GI50 [2]: ≤ 30 nM
- GI50 [3]: ≤ 30 nM
- GI50 [4]: ≤ 30 nM
Compound: [2H]C([2H])([2H])N(c1cc(OC)c(Nc2ncc(-c3nnc(C)o3)c(-c3cn(C)c4ccccc34)n2)cc1NC(=O)C=C)[C@@H]1[C@@H]2CN(C)C[C@@H]21 [Example 7]

Source: patent US20260250270A1, “Compound Used as Kinase Inhibitor and Use Thereof” (TYK MEDICINES, INC., priority 2022, published 2026)
